Results published in patent publication US10047096B2, “Substituted pyridobenzodiazepinone-derivatives and use thereof” (Bayer Pharma Aktiengesellschaft, priority 2014, dated 2018).

Assays:
[1] = target: pPDGFRβ in normal human dermal fibroblasts (NHDF) (Homo sapiens (Human), UniProt P09619); assay: Cellular pPDGFRβ inhibition assay; assay type: cell-based; details: NHDF stimulated with 50 ng/ml PDGF-BB, 1 h
Protocol: Thereafter, 50 ng/ml recombinant human PDGF-BB (R&D Systems, Cat. No. 220-BB-050) and a dilution series of the test substances to be examined in DMSO were added to the cells. The total volume per well was 100 μl. After incubation under the abovementioned conditions for one hour, the Opti-MEM® I Reduced Serum Medium was tapped out and discarded. Subsequently, the lysis buffer [Phospho PDGFRβ (Tyr751) Assay Whole Cell Lysate Kit, MSD, Cat. No. K150DVD-2] was made up according to the manufacturer's instructions and 70 μl of this mixture per well were added. The lysed cell samples were either stored at −20° C. or analysed immediately after the lysis in a Meso Scale SECTOR® Imager 2400 according to the abovementioned manufacturer's instructions. The measurement data were presented as percentage PDGFRβ stimulation compared to PDGF-BB-stimulated but substance-untreated cells. The IC50 values were calculated by employing the nonlinear regression (curve fit) function of GraphPad Prism 6 (La Jolla, Calif., USA).

human PDGFRβ = human PDGFRβ (Homo sapiens (Human), UniProt P09619); assay: PDGFRβ kinase assay (PDGFRβ-HTRF); assay type: biochemical; details: 10 μM ATP; some mean values from multiple determinations
Sequence of human PDGFRβ (P09619 561-1106): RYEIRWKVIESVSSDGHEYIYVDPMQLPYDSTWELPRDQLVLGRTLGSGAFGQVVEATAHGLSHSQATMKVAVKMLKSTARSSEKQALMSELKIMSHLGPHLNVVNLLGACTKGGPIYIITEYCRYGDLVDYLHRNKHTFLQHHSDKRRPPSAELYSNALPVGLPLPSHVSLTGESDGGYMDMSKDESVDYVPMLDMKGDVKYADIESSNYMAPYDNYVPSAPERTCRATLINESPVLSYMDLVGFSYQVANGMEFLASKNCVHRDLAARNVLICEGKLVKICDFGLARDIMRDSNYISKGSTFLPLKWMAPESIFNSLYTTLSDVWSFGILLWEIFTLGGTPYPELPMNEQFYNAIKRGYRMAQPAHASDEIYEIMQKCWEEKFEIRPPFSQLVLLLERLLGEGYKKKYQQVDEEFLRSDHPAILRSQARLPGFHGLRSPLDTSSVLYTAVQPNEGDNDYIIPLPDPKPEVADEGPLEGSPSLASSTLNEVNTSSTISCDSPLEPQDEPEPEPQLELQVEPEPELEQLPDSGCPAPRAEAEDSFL
In short: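 GST-fused human PDGFRβ fragment (R561-L1106) from Sf9 cells was preincubated 15 min with compound in 50 mM HEPES pH 7.5, 10 mM MgCl2, 2.5 mM DTT, 0.01% Triton X-100; substrate was biotinylated poly-Glu,Tyr (4:1).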

Sequence of pPDGFRβ in normal human dermal fibroblasts (NHDF) (P09619 33-1106): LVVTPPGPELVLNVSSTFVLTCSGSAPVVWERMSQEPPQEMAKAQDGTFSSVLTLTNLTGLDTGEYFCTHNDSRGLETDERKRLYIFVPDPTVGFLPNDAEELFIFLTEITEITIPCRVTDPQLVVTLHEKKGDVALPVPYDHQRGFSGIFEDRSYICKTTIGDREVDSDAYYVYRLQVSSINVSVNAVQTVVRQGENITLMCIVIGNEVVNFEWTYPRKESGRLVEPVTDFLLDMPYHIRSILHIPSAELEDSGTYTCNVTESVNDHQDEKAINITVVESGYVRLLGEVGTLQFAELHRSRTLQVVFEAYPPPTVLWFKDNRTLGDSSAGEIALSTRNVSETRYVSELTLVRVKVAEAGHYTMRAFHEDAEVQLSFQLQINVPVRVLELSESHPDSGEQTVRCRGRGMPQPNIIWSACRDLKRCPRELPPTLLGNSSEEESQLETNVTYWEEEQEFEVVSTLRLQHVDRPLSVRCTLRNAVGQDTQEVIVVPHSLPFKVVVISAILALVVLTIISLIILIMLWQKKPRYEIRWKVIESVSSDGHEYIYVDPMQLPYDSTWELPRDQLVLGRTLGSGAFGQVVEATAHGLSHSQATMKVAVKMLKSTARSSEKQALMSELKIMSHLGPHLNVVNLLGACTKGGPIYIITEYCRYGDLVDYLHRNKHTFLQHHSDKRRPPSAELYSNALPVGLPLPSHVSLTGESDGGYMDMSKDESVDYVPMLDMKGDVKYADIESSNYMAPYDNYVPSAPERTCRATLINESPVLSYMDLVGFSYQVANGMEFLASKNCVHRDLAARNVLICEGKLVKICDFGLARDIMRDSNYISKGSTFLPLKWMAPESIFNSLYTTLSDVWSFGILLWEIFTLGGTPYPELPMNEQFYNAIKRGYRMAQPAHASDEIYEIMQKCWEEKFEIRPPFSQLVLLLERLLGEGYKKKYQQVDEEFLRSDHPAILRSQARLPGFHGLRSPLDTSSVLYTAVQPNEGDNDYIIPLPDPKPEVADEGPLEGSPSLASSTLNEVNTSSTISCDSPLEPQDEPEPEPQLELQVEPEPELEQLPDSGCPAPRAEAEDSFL

Structure (SMILES) | IC50 [1] [nM] | IC50 (human PDGFRβ) [nM]
Cc1cc(F)c(Nc2ccnc3c2C(=O)Nc2cc(CNC(CO)C(C)C)ccc2N3)cc1O (racemic) [Example 75, rac-4-[(2-Fluoro-5-hydroxy-4-methylphenyl)amino]-8-{[(1-hydroxy-3-methylbutan-2-yl)amino]methyl}-6,11-dihydro-5H-pyrido[2,3-b][1,5]benzodiazepin-5-one] | 43.9 | 0.826
Cc1ccc(O)cc1Nc1ccnc2c1C(=O)Nc1cc(CNC(C)C)ccc1N2 [Example 19, 4-[(5-Hydroxy-2-methylphenyl)amino]-8-[(isopropylamino)methyl]-6,11-dihydro-5H-pyrido[2,3-b][1,5]benzodiazepin-5-one] | 40.9 | 2.02
CCN(CC)Cc1ccc2c(c1)NC(=O)c1c(Nc3cc(O)c(C)cc3F)ccnc1N2 [Example 28, 8-[(Diethylamino)methyl]-4-[(2-fluoro-5-hydroxy-4-methylphenyl)amino]-6,11-dihydro-5H-pyrido[2,3-b][1,5]benzodiazepin-5-one] | 21.6 | 0.953
Cc1cc(F)c(Nc2ccnc3c2C(=O)Nc2cc(CN4CCOCC4)ccc2N3)cc1O [Example 29, 4-[(2-Fluoro-5-hydroxy-4-methylphenyl)amino]-8-(morpholin-4-ylmethyl)-6,11-dihydro-5H-pyrido[2,3-b][1,5]benzodiazepin-5-one] | 35.3 | 2.89
Cc1cc(F)c(Nc2ccnc3c2C(=O)Nc2cc(CNC4CC4)ccc2N3)cc1O [Example 30, 8-[(Cyclopropylamino)methyl]-4-[(2-fluoro-5-hydroxy-4-methylphenyl)amino]-6,11-dihydro-5H-pyrido[2,3-b][1,5]benzodiazepin-5-one] | 111 | 2.17
CCNCc1ccc2c(c1)NC(=O)c1c(Nc3cc(O)c(C)cc3F)ccnc1N2 [Example 31, 8-[(Ethylamino)methyl]-4-[(2-fluoro-5-hydroxy-4-methylphenyl)amino]-6,11-dihydro-5H-pyrido[2,3-b][1,5]benzodiazepin-5-one] | 33.3 | 1.22
Cc1cc(F)c(Nc2ccnc3c2C(=O)Nc2cc(CN4CCCC4)ccc2N3)cc1O [Example 32, 4-[(2-Fluoro-5-hydroxy-4-methylphenyl)amino]-8-(pyrrolidin-1-ylmethyl)-6,11-dihydro-5H-pyrido[2,3-b][1,5]benzodiazepin-5-one] | 22.8 | 3.25
Cc1ccc(O)cc1Nc1ccnc2c1C(=O)Nc1cc(CN3CCC(O)CC3)ccc1N2 [Example 42, 4-[(5-Hydroxy-2-methylphenyl)amino]-8-[(4-hydroxypiperidin-1-yl)methyl]-6,11-dihydro-5H-pyrido[2,3-b][1,5]benzodiazepin-5-one] | 140 | 2.44
CCN(C)Cc1ccc2c(c1)NC(=O)c1c(Nc3cc(O)c(C)cc3F)ccnc1N2 [Example 49, 8-{[Ethyl(methyl)amino]methyl}-4-[(2-fluoro-5-hydroxy-4-methylphenyl)amino]-6,11-dihydro-5H-pyrido[2,3-b][1,5]benzodiazepin-5-one] | 41.1 | 0.487
CCOCCN(CC)Cc1ccc2c(c1)NC(=O)c1c(Nc3cc(O)c(C)cc3F)ccnc1N2 [Example 50, 8-{[(2-Ethoxyethyl) (ethyl)amino]methyl}-4-[(2-fluoro-5-hydroxy-4-methylphenyl)amino]-6,11-dihydro-5H-pyrido[2,3-b][1,5]benzodiazepin-5-one] | 97.4 | 1.13
CCN(Cc1ccc2c(c1)NC(=O)c1c(Nc3cc(O)c(C)cc3F)ccnc1N2)C(C)C [Example 51, 8-{[Ethyl(isopropyl)amino]methyl}-4-[(2-fluoro-5-hydroxy-4-methylphenyl)amino]-6,11-dihydro-5H-pyrido[2,3-b][1,5]benzodiazepin-5-one] | 22.1 | 1.15
CCN(CCOC)Cc1ccc2c(c1)NC(=O)c1c(Nc3cc(O)c(C)cc3F)ccnc1N2 [Example 55, 8-{[Ethyl(2-methoxyethyl)amino]methyl}-4-[(2-fluoro-5-hydroxy-4-methylphenyl)amino]-6,11-dihydro-5H-pyrido[2,3-b][1,5]benzodiazepin-5-one] | 60.7 | 0.905
Cc1cc(F)c(Nc2ccnc3c2C(=O)Nc2cc(CN4C[C@H](O)C[C@H]4CO)ccc2N3)cc1O [Example 64, 4-[(2-Fluoro-5-hydroxy-4-methylphenyl)amino]-8-{[(2S,4R)-4-hydroxy-2-(hydroxymethyl)pyrrolidin-1-yl]methyl}-6,11-dihydro-5H-pyrido[2,3-b][1,5]benzodiazepin-5-one] | 14.3 | 0.68
Cc1cc(F)c(Nc2ccnc3c2C(=O)Nc2cc(CN[C@H]4CC[C@H](O)CC4)ccc2N3)cc1O [Example 76, 4-[(2-Fluoro-5-hydroxy-4-methylphenyl)amino]-8-{[(trans-4-hydroxycyclohexyl)amino]methyl}-6,11-dihydro-5H-pyrido[2,3-b][1,5]benzodiazepin-5-one] | 11.3 | 1.58
Cc1cc(F)c(Nc2ccnc3c2C(=O)Nc2cc(CNC(CO)CO)ccc2N3)cc1O [Example 78, 8-{[(1,3-Dihydroxypropan-2-yl)amino]methyl}-4-[(2-fluoro-5-hydroxy-4-methylphenyl)amino]-6,11-dihydro-5H-pyrido[2,3-b][1,5]benzodiazepin-5-one] | 32.6 | 0.974
CCN(CCO)C(=O)c1ccc2c(c1)NC(=O)c1c(Nc3cc(O)c(C)cc3F)ccnc1N2 [Example 162, N-Ethyl-4-[(2-fluoro-5-hydroxy-4-methylphenyl)amino]-N-(2-hydroxyethyl)-5-oxo-6,11-dihydro-5H-pyrido[2,3-b][1,5]benzodiazepine-8-carboxamide] | 890 | 12.1
CCN(CC)Cc1ccc2c(c1)NC(=O)c1c(Nc3cc(O)c(Cl)cc3F)ccnc1N2 [Example 174, 4-[(4-Chloro-2-fluoro-5-hydroxyphenyl)amino]-8-[(diethylamino)methyl]-6,11-dihydro-5H-pyrido[2,3-b][1,5]benzodiazepin-5-one] | 106 | 1.25
Cc1cc(F)c(Nc2ccnc3c2C(=O)Nc2cc(CNC4CC(O)C4)ccc2N3)cc1O (stereo not shown) [Example 187, 4-[(2-Fluoro-5-hydroxy-4-methylphenyl)amino]-8-{[(3-hydroxycyclobutyl)amino]methyl}-6,11-dihydro-5H-pyrido[2,3-b][1,5]benzodiazepin-5-one] | 41.3 | 1.51
Cc1cc(F)c(Nc2ccnc3c2C(=O)Nc2cc(CN(C)CCO)ccc2N3)cc1O [Example 198, 4-[(2-Fluoro-5-hydroxy-4-methylphenyl)amino]-8-{[(2-hydroxyethyl)(methyl)amino]methyl}-6,11-dihydro-5H-pyrido[2,3-b][1,5]benzodiazepin-5-one] | 49.8 | 0.962
Cc1cc(F)c(Nc2ccnc3c2C(=O)Nc2cc(CN(C)C[C@H](C)O)ccc2N3)cc1O [Example 202, 4-[(2-Fluoro-5-hydroxy-4-methylphenyl)amino]-8-({[(2S)-2-hydroxypropyl](methyl)amino}methyl)-6,11-dihydro-5H-pyrido[2,3-b][1,5]benzodiazepin-5-one] | 39.1 | 1.55
Cc1cc(F)c(Nc2ccnc3c2C(=O)Nc2cc(CN4CCC[C@H](N)C4)ccc2N3)cc1O [Example 219, 8-{[(3S)-3-Aminopiperidin-1-yl]methyl}-4-[(2-fluoro-5-hydroxy-4-methylphenyl)amino]-6,11-dihydro-5H-pyrido[2,3-b][1,5]benzodiazepin-5-one] |  | 1.48
Cc1cc(F)c(Nc2ccnc3c2C(=O)Nc2cc(CN4CC[C@H](N(C)C)C4)ccc2N3)cc1O [Example 220, 8-{[(3S)-3-(Dimethylamino)pyrrolidin-1-yl]methyl}-4-[(2-fluoro-5-hydroxy-4-methylphenyl)amino]-6,11-dihydro-5H-pyrido[2,3-b][1,5]benzodiazepin-5-one] |  | 2.15
Cc1cc(F)c(Nc2ccnc3c2C(=O)Nc2cc(CN(C)CCCO)ccc2N3)cc1O [Example 221, 4-[(2-Fluoro-5-hydroxy-4-methylphenyl)amino]-8-{[(3-hydroxypropyl)(methyl)amino]methyl}-6,11-dihydro-5H-pyrido[2,3-b][1,5]benzodiazepin-5-one] |  | 1.74
CCN(CCCO)Cc1ccc2c(c1)NC(=O)c1c(Nc3cc(O)c(C)cc3F)ccnc1N2 [Example 222, 8-{[Ethyl(3-hydroxypropyl)amino]methyl}-4-[(2-fluoro-5-hydroxy-4-methylphenyl)amino]-6,11-dihydro-5H-pyrido[2,3-b][1,5]benzodiazepin-5-one] |  | 1.01
Cc1ccc(O)cc1Nc1ccnc2c1C(=O)Nc1cc(C(=O)NCc3cccc(Cl)c3)ccc1N2 [Example 225, N-(3-Chlorobenzyl)-4-[(5-hydroxy-2-methylphenyl)amino]-5-oxo-6,11-dihydro-5H-pyrido[2,3-b][1,5]benzodiazepine-8-carboxamide] |  | 14.1
Cc1cc(F)c(Nc2ccnc3c2C(=O)Nc2cc(CNC4CCCC4)ccc2N3)cc1O [Example 226, 8-[(Cyclopentylamino)methyl]-4-[(2-fluoro-5-hydroxy-4-methylphenyl)amino]-6,11-dihydro-5H-pyrido[2,3-b][1,5]benzodiazepin-5-one] |  | 1.09
